For test [1], the system named is MCF7. In words: Cytotoxicity against human MCF7 cells assessed as cell viability after 48 hrs by MTT assay. It is filed as cell-based. The settings on record: MCF7, 48 h. In general terms: Tetrazolium assays rely on reduction of a dye to a coloured formazan, in cell work by metabolically active cells.
Test [2] deals with Entamoeba histolytica. In words: Antiameobic activity against Entamoeba histolytica HM-1:IMSS after 72 hrs using trypan blue staining method. The test is classed as functional, organism-based.

Regarding `Cc1ncc([N+](=O)[O-])n1CCO` [METRONIDAZOLE], the IC50 in test [1] is more than 250 µM.
Consider `S=c1[nH]nc(-c2ccncc2)o1`, for which, in test [2], the Activity entry is “Dose-dependent effect” and the IC50 is 0.558 µM. The IC50 in test [1] was more than 250 µM.
With `CC(C)c1ccc(/C=N/NC(=O)c2ccncc2)cc1`, half-maximal inhibition in test [2] (IC50) was put at 3.74 µM.
For `COc1ccc(/C=N/NC(=O)c2ccncc2)cc1`, in test [2], the Activity result is “Dose-dependent effect” and the IC50 was found to be 0.39 µM. Besides, the IC50 in test [1] is more than 250 µM.
`CN(C)c1ccc(/C=N/NC(=O)c2ccncc2)cc1` [N'-(4-DIMETHYLAMINOBENZYLIDENE)ISONICOTINOHYDRAZIDE] had an IC50 in test [2] of 5.55 µM.
With `O=C(N/N=C/c1ccccc1)c1ccncc1` [N'-BENZYLIDENE ISONICOTINOHYDRAZIDE], in test [2], the IC50 came out at 3.84 µM.
For `Sc1nnc(-c2ccncc2)n1-c1ccccc1`, in test [2], the Activity entry is “Dose-dependent effect” and it took 0.16 µM to reach half-maximal inhibition (IC50). Also, the IC50 in test [1] is more than 250 µM.
`O=C(N/N=C/c1cccc(Cl)c1)c1ccncc1` [N'-(3-CHLOROBENZYLIDENE)ISONICOTINOHYDRAZIDE]: half-maximal inhibition in test [2] (IC50) was put at 12.1 µM.
As to `O=C(N/N=C/c1ccc([N+](=O)[O-])cc1)c1ccncc1` [N'-(4-NITROBENZYLIDENE)ISONICOTINOHYDRAZIDE], in test [2], the Activity result is “Dose-dependent effect” and the IC50 was found to be 0.37 µM. Moreover, the IC50 in test [1] was more than 250 µM.
Turning to `Cc1ccc(/C=N/NC(=O)c2ccncc2)cc1` [N'-(4-METHYLBENZYLIDENE)ISONICOTINOHYDRAZIDE], in test [2], the Activity result was “Dose-dependent effect” and the IC50 was 0.13 µM. The IC50 in test [1] was more than 250 µM.
As to `c1ccc(Nc2nnc(-c3ccncc3)s2)cc1`, in test [2], half-maximal inhibition (IC50) was put at 4.43 µM.
In test [2], `O=C(N/N=C/c1ccccc1O)c1ccncc1` [SALINAZID] showed an IC50 of 4.14 µM.

Broadly, the IC50 is the concentration that inhibits the measured activity by half.

Values taken from ChEMBL document CHEMBL1944623, “Synthesis, characterization and antiamoebic activity of some hydrazone and azole derivatives bearing pyridyl moiety as a promising heterocyclic scaffold” (Eur J Med Chem, 2012).
